Source: patent publication US9339543B2, “Pharmaceutical compositions that inhibit disproportionation” (Merck Sharp & Dohme Corp., priority 2011, dated 2016)

Legend:
[1] = XRPD of stressed pioglitazone HCl binary/acidified compacts (free base formation); assay type: physicochemical; settings: for Inhibition of disproportionation via acidification (Table 6 and FIGS. 2 and 3): organic acid in a 1:1 weight ratio with the carboxylate excipient, NIR and XRPD; for Inhibition of disproportionation by organic acid (XRPD, FIG. 2): pioglitazone HCl compacts containing MgSt with organic acids, 40° C./75% RH open dish
Description: (§1) An understanding of pioglitazone HCl salt disproportionation was obtained by studying each excipient individually. All of the API and excipient powders were gravimetrically dispensed into 1-dram glass vials using the Symyx Powdernium powder dispensing robot. Binary mixtures containing 250 mg of pioglitazone HCl salt and approximately 30 mg of the excipients were dispensed to create a 9:1 weight ratio mixture. Pharmaceutically relevant formulation matrix samples, or pseudo formulations, were also prepared. The compact target weight was 280 mg with a final composition of 45% of pioglitazone HCl salt, 25% avicel, 25% mannitol and 5% of the remaining excipients.
(§2) Upon completion of the powder dispensing, the vials were removed from the robot and mixed using a Resodyn Acoustic Mixer (LabRAM). The powders were mixed for 30 seconds at 30% intensity to produce homogeneous mixtures. The powders were then poured from the DRAM vial into a ½ inch die. A single compact from each DRAM vial was manually compressed using a compression force of 2000-3000 lbs and a dwell time of 5 seconds. Compacts were stressed at 40° C./35% RH and 40° C./75% RH. The sample preparation and reference for each compact can be seen in Table 2.
XRPD spectroscopy was also used to quantify the level of disproportionation in selected stressed samples of pioglitazone HCl. XRPD Spectroscopy is more sensitive to free base than NIR, making it suitable for samples with little or no disproportionation. The XRPD spectra were collected on the Panalytical X'pert Pro diffractometer with Cu Ka1 radition of 1.5406 Å in the transmission mode. The samples were scanned between a two theta range of 4 and 20° at a step size of 0.0167° for one hour at ambient conditions. The tube power used was 45 kV and 40 mA. In the XRPD pattern, the pioglitazone crystalline free base form has four specific peaks at 7.8weak, 9.1strong, 10.3strong and 15.1moderate 2-theta. The pioglitazone HCl form has a doublet peak centered at 8.6 2-theta.

[2] = cited from earlier work
[3] = aqueous; cited from earlier work
[4] = FT-NIR monitoring of loss of HCl salt in stressed pioglitazone HCl binary/acidified compacts; assay type: physicochemical; settings: MgSt and organic acid compacts, 40° C./75% RH open dish
Description: as §1, §2
FT-NIR reflectance spectroscopy was used to monitor the loss of HCl salt throughout the binary and pseudo formulation studies. […]

Molecule | Inhibition of disproportionation via acidification (Table 6 and FIGS. 2 and 3) [1] | Inhibition of disproportionation by organic acid (XRPD, FIG. 2) [1] | pKa Values (first value) [2] | Aq. Sol. [3] | Inhibition of disproportionation by organic acid (NIR, Table 6) [4] | pKa Values (second value) [2] | pKa Values (third value) ([2]; third pKa printed in cell)
O=C(O)/C=C/C(=O)O [Fumaric Acid] | not effective in inhibiting disproportionation | do not effectively inhibit disproportionation | 3.0 | 0.0063 g/mL | – | – | –
O=C(O)/C=C\C(=O)O [Maleic Acid] | completely inhibited | successfully inhibit disproportionation | – | 0.78 g/mL | could inhibit disproportionation | 6.3 | –
O=C(O)C(=O)O [Oxalic Acid] | not effective in inhibiting disproportionation | do not effectively inhibit disproportionation | 1.25 | 0.14 g/mL | – | 4.14 | –
O=C(O)C(O)C(O)C(=O)O (stereo not shown) [Tartaric Acid] | completely inhibited | successfully inhibit disproportionation | 3.0 | 1.3 g/mL | could inhibit disproportionation | 4.2 | –
Citric Acid | not effective in inhibiting disproportionation | do not effectively inhibit disproportionation | 3.2 | – | – | 4.8 | 6.4
